Earlier results as cited in patent US11911501B1, “Biocompatible resin composition and method of manufacturing dissolvable microneedles for transdermal delivery using biocompatible resin” (Florida A&M University, priority 2020, dated 2024).

Test system: clonal SV 40 large T-antigen transfected human pulp-derived cells (tHPC)
Details: reference [1]

**Q.** For `Cc1cc(C)c(C(=O)P(=O)(c2ccccc2)c2ccccc2)c(C)c1` [TPO, diphenyl(2,4,6-trimethylbenzoyl)phosphine oxide], which toxicity is on record?
**A.** Its toxicity is “cause toxicity”.
